Experiment [1] has as its system primary forebrain neurons. The experiment in a line: cells. Particulars: 24 h; for EC50: Mus musculus, Neuron; for Dendritic Mt CA / Neurite Area: rescreen, 12.5 μM, vs DMSO wells.
Experiment [2] has as its system primary neurons. The experiment in a line: Oxygen consumption rate (OCR) of permeabilized primary neurons. The experiment is classed as cell-based, mouse.
Experimental: The oxygen consumption rate (OCR) of permeabilized neurons and isolated brain mitochondria (from 9-month old mice) was measured by the XF96 Extracellular Flux analyzer (Seahorse Bioscience). […] Prior to the start of the OCR measurement, all but 30 μl of Neurobasal A/B27 culture medium was removed from each well. Cells were washed twice with pre-warmed MAS-BSA assay medium (4 mg/ml fatty-acid free BSA, pH=7.2) and incubated in 180 μl at 37° C. for 5 min. Following the cartridge calibration, cells were loaded into the XF96 Extracellular Flux analyzer and further equilibrated for 10 min with two cycles of 3 min mixing and 2 min resting prior to the first measurement of basal respiration. OCR were measured at 37° C. under basal conditions followed by the sequential injection of pre-warmed 10× mitochondrial substrates/ADP (20 μl), oligomycin (22 μl), FCCP (24 μl), and rotenone/antimycin A (26 μl). The final concentrations of injected compounds were as follows: 10 mM mitochondrial substrates (pyruvate/malate or succinate), 1 mM ADP, 1.5 μM oligomycin, 3 μM FCCP, 2 μM rotenone/antimycin A. Saponin (25 μg/ml) was co-injected with substrate/ADP to permeabilize the cells and stimulate ADP-dependent respiration. Two baseline measurements were obtained prior to any injection and 2 response measurements were collected after each injection except for after FCCP addition which consisted of 1 measurement (9 total measurements in each assay). Each measurement cycle consisted of 2 min mixing, 2 min waiting, and 3 min data acquisition. This protocol allowed for sequential assessment of basal cell respiration, maximal mitochondrial respiratory capacity (State 3 with substrate/ADP), proton leak (State 4o with oligomycin), uncoupled maximal respiration (State 3U with FCCP) and non-mitochondrial respiration with the Complex I/Complex III inhibitors, rotenone/antimycin A. Cells were washed twice with MAS buffer to remove residue BSA contained in the assay medium, lysed in 50 μl lysis buffer (25 mM HEPES, 1 mM EGTA, 1 mM EDTA, 0.1% SDS, 1% NP-40, 1× protease and phosphatase inhibitor, pH 7.0 adjusted with NaOH) and total protein was determined by BCA assay. Oxygen consumption was normalized to total protein content as pmol O2/min/ug total protein.
Oxygen consumption rate (OCR) or extracellular acidification rate (ECAR) measurements from permeabilized neurons and isolated brain mitochondria were performed using the XF96 Extracellular Flux analyzer (Seahorse Bioscience). For assays using cultured neurons, primary neurons were dissociated from the forebrains of P0 pups, seeded at 1.9×10^4/well (PDL-coated XF96 plate), cultured to DIV13 and incubated with selected compounds or DMSO (0.1%) for 24 h. Prior to the start of the OCR measurement, all but 30 μl of Neurobasal A/B27 culture medium was removed from each well. Cells were washed twice with pre-warmed MAS-BSA assay medium (70 mM sucrose, 220 mM mannitol, 10 mM KH2PO4, 5 mM MgCl2, 2 mM HEPES and 1 mM EGTA, 4 mg/ml fatty-acid free BSA, pH=7.2 adjusted using KOH) and incubated in 180 ul MAS-BSA medium at 37° C. in a CO2-free incubator for 5 m. […] OCR and ECAR were measured at 37° C. under basal conditions followed by the sequential injection of pre-warmed 10× mitochondrial substrates/ADP (20 μl), oligomycin (22 μl), FCCP (24 μl), and rotenone/antimycin A (26 μl).
For experiment [3], the system named is primary neurons. Description: TMRM fluorescence assay of inner mitochondrial membrane potential (ΔΨm). Particulars: for Emax / EC50: Mus musculus, Primary neuron; for Emax: read-out: TMRM (Effect-size); for EC50: read-out: TMRM-EC50; for TMRM Primary: primary screen, 12.5 μM; for TMRM Primary / TMRM Rescreen: 24 h.
In experiment [4] the test system is primary cortical neurons. Particulars: Ding et al. 2011; cited from earlier work.
The subject of experiment [5] is Drosophila model for AD. The experiment in a line: Drosophila model for AD: neuronal mitochondrial morphology. Particulars: cell bodies of neurons; 100 micromolar, 15 days-of-age. The experiment is classed as in vivo. The source says:
To assay representative compounds in this example, we employed a Drosophila model for AD (X. Wang et al., Mol. Neurobiol. […] Flies expressing this toxic protein show: […] Drugs that show efficacy therefore: enlarge neuronal mitochondria (increased volume, increased surface area, increased length), reduce sphericity, and reduce the number of mitochondria compared to untreated Alzheimer's flies. The AD model flies were collected immediately after eclosion from the pupal case and transferred to food that was laced with drug at 100 micromolar concentration. The flies were aged to 15 days-of-age: this is when the mitochondrial pathology is very robust. We compared the morphology of mitochondria collected from these flies treated with drug and compared them to the mitochondria of flies that remained untreated.

In experiment [6] the test system is NRF2-mediated antioxidant response. To be noted: WO2012149478A3; cited from earlier work.
The mark [7] stands for this setting: read-out: Elongation (Dend Mt length) EC50.
Setting [8] is: read-out: Health (Ax Mt Circularity) EC50.
Setting [9] is: read-out: Mt Content (Dend Mt CA) EC50.
Where [10] appears, read: read-out: Sprouting (Neurite Area) EC50.

Each structure is given as a SMILES string. Counter-ions that a name gives are not always drawn. Like-named read-outs stand apart in the source and are kept apart here.

On to `CCCCOc1ccc(C(=O)CCN2CCCCC2)cc1` [DYCLONINE HYDROCHLORIDE], for which the EC50 in experiment [1] (setting [7]) is 1500 nM; in experiment [1] (setting [8]), 200 nM; in experiment [1] (setting [9]) it was 200 nM; in experiment [1] (setting [10]) it was > 25000 nM; in experiment [3], 750 nM. In addition, in experiment [1], the “Dendritic Mt CA” value is reported as 3.89 robust Z-scores. Besides, in experiment [1], the “Neurite Area” value was determined as 0.33 robust Z-scores. In addition, the “State 3 and 3u respiration stimulated by either Complex I or Complex II substrates” value in experiment [2] (10 μM, 24 h, cultured neurons) is reported as “significant increase”. The OCR result in experiment [2] (oxygen consumption rate, significant change) is given as “increased”. For the same compound, the Emax in experiment [3] stood at 22%. Moreover, the “TMRM Primary” value in experiment [3] is on record as 3.64 Z-scores. In experiment [3], the “TMRM Rescreen” value was determined as 6.30 Z-scores.

Regarding `O=c1c(-c2ccc(O)cc2)coc2cc(O)cc(O)c12` [GENISTEIN], in experiment [1], the “Dendritic Mt CA” value turned out to be 2.93 robust Z-scores and the “Neurite Area” value stood at 0.34 robust Z-scores. Also, the “ΔΨm in primary cortical neurons treated with Aβ peptide” value in experiment [4] is listed as “increase ΔΨm”. The “Surface area of mitochondria, p (treated vs untreated)” value in experiment [5] is “p = 0.083”. In addition, in experiment [3], the Emax turned out to be 19.5%, the EC50 was found to be 1300 nM, the “TMRM Primary” value turned out to be 3.38 Z-scores and the “TMRM Rescreen” value is 4.21 Z-scores.

As for `COC(=O)[C@@H]1[C@H]2C[C@H]3c4[nH]c5ccccc5c4CCN3C[C@@H]2CC[C@@H]1O` [YOHIMBINE HYDROCHLORIDE], in experiment [1] (setting [7]), the EC50 was 200 nM. The EC50 in experiment [1] (setting [8]) is 1300 nM. Also, the EC50 in experiment [1] (setting [9]) worked out at 10 nM. For the same compound, the EC50 in experiment [1] (setting [10]) is 1700 nM. For the same compound, in experiment [1], the “Dendritic Mt CA” value stood at 3.44 robust Z-scores and the “Neurite Area” value worked out at 2.50 robust Z-scores. Also, the “neuroprotection by inducing the NRF2-mediated antioxidant response” value in experiment [6] is given as “neuroprotective”. In experiment [3], the Emax was 18.6%, the EC50 is 620 nM, the “TMRM Primary” value is 2.70 Z-scores and the “TMRM Rescreen” value is 5.70 Z-scores.

What is called EC50 is the concentration giving half of the maximal effect.

Source of the values: US20230003721A1, “MITOTHERAPEUTICS FOR THE TREATMENT OF BRAIN DISORDERS” (The University of Florida Research Foundation, Inc., priority 2019, published 2023).
